Measured values reported in ChEMBL document CHEMBL5532655, “Discovery of (R)-4-(8-methoxy-2-methyl-1-(1-phenylethy)-1H-imidazo[4,5-c]quinnolin-7-yl)-3,5-dimethylisoxazole as a potent and selective BET inhibitor for treatment of acute myeloid leukemia (AML) guided by FEP calculation” (Eur J Med Chem, 2024).
Activity calls are given as the source filed them. No cut-off for these calls is given here.

How the values were obtained:
[1] = species: Homo sapiens; details: time 30.0 min
[2] = Half life in Sprague-Dawley rat at 10 mg/kg,po administration measured upto 24 hrs by LC-MS/MS analysis; type: ADME, organism-based; details: in vivo
[3] = tested on: MV4-11; assay: Induction of cell cycle arrest in human MV4-11 cells assessed as accumulation of cells at S phase at 0.625 uM incubated for 24 hrs by propidium iodide staining flow cytometric analysis (reference value: 43.94 %); type: functional
[4] = tested on: MV4-11; assay: Induction of apoptosis in human MV4-11 cells assessed as late apoptotic cells at 0.625 uM incubated for 24 hrs by annexin V-FITC/PI staining based flow cytometric analysis (reference value: 0.04 %); type: functional
[5] = tested on: MV4-11; assay: Induction of apoptosis in human MV4-11 cells assessed as late apoptotic cells at 2.5 uM incubated for 24 hrs by annexin V-FITC/PI staining based flow cytometric analysis (reference value: 0.04 %); type: functional
[6] = target: Bromodomain adjacent to zinc finger domain protein 2B (Homo sapiens) (UniProt Q9UIF8); details: time 30.0 min
[7] = tested on: MV4-11; assay: Induction of cell cycle arrest in human MV4-11 cells assessed as accumulation of cells at G0/G1 phase at 0.3125 uM incubated for 24 hrs by propidium iodide staining flow cytometric analysis (reference value: 37.64 %); type: functional
[8] = target: Histone acetyltransferase p300 (Homo sapiens) (UniProt Q09472); details: time 30.0 min
[9] = tested on: MV4-11; assay: Induction of apoptosis in human MV4-11 cells assessed as early apoptotic cells at 5 uM incubated for 24 hrs by annexin V-FITC/PI staining based flow cytometric analysis (reference value: 0%); type: functional
[10] = target: CREB-binding protein (Homo sapiens) (UniProt Q92793); assay: Binding affinity to CREBBP (unknown origin) using biotinylated histone peptide H4 as substrate at 1 uM incubated for 2 hrs by AlphaScreen assay relative to control
[11] = species: Homo sapiens; assay: Binding affinity to PHIP2 (unknown origin) using biotinylated histone peptide H4 as substrate at 1 uM incubated for 2 hrs by AlphaScreen assay relative to control
[12] = target: Histone acetyltransferase KAT2B (Homo sapiens) (UniProt Q92831); details: time 30.0 min
[13] = tested on: MV4-11; assay: Induction of apoptosis in human MV4-11 cells assessed as necrotic cells at 10 uM incubated for 24 hrs by annexin V-FITC/PI staining based flow cytometric analysis (reference value: 2.35 %); type: functional
[14] = tested on: MV4-11; assay: Antitumor activity against human MV4-11 cells xenografted in BALB/c mouse assessed as tumor growth inhibition at 30 mg/kg administration relative to control; type: functional; details: read-out: TGI
[15] = tested on: MV4-11; assay: Induction of apoptosis in human MV4-11 cells assessed as early apoptotic cells at 0.625 uM incubated for 24 hrs by annexin V-FITC/PI staining based flow cytometric analysis (reference value: 0%); type: functional
[16] = tested on: MV4-11; assay: Induction of apoptosis in human MV4-11 cells assessed as upregulation of cleaved PARP expression at 0.3125 to 2.5 uM incubated for 48 hrs by Western blotting analysis; type: functional, cell-based; details: dose 0.3125-2.5 µM
[17] = tested on: MV4-11; assay: Induction of cell cycle arrest in human MV4-11 cells assessed as accumulation of cells at G0/G1 phase at 5 uM incubated for 24 hrs by propidium iodide staining flow cytometric analysis (reference value: 37.64 %); type: functional
[18] = target: Histone acetyltransferase p300 (Homo sapiens) (UniProt Q09472); assay: Binding affinity to EP300 (unknown origin) using biotinylated histone peptide H4 as substrate at 1 uM incubated for 2 hrs by AlphaScreen assay relative to control
[19] = tested on: MV4-11; assay: Induction of cell cycle arrest in human MV4-11 cells assessed as accumulation of cells at G2/M phase at 5 uM incubated for 24 hrs by propidium iodide staining flow cytometric analysis (reference value: 18 %); type: functional
[20] = target: CREB-binding protein (Homo sapiens) (UniProt Q92793); details: time 30.0 min
[21] = target: T1, Bromodomain-containing protein 7 (Homo sapiens) (UniProt Q9NPI1); assay: Binding affinity to BRD7 (unknown origin) using biotinylated histone peptide H4 as substrate at 1 uM incubated for 2 hrs by AlphaScreen assay relative to control
T1 sequence (whole entry): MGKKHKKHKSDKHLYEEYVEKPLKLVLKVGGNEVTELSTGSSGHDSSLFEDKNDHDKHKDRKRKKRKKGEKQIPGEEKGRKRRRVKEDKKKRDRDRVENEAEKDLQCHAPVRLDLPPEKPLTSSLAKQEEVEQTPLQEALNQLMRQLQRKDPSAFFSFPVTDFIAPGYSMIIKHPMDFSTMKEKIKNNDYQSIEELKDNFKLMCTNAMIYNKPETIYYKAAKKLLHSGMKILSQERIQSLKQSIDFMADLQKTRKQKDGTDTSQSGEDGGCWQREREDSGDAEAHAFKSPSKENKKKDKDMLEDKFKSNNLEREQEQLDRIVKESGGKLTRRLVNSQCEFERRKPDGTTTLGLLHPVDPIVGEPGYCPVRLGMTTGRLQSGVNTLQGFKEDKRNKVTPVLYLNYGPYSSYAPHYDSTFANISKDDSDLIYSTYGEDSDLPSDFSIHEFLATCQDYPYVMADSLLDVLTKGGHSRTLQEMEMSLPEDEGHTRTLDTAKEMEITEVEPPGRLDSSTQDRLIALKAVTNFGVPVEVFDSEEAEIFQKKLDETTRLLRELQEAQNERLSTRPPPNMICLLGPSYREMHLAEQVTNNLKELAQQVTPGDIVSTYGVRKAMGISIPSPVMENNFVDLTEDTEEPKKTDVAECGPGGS

[22] = tested on: MV4-11; assay: Induction of cell cycle arrest in human MV4-11 cells assessed as accumulation of cells at S phase at 2.5 uM incubated for 24 hrs by propidium iodide staining flow cytometric analysis (reference value: 43.94 %); type: functional
[23] = AUC (0-infinity) in Sprague-Dawley rat at 10 mg/kg,po administration measured upto 24 hrs by LC-MS/MS analysis; type: ADME, organism-based; details: in vivo
[24] = target: T1, Bromodomain-containing protein 7 (Homo sapiens); details: time 30.0 min
[25] = tested on: MV4-11; assay: Induction of apoptosis in human MV4-11 cells assessed as early apoptotic cells at 2.5 uM incubated for 24 hrs by annexin V-FITC/PI staining based flow cytometric analysis (reference value: 0%); type: functional
[26] = tested on: MV4-11; assay: Induction of apoptosis in human MV4-11 cells assessed as late apoptotic cells at 5 uM incubated for 24 hrs by annexin V-FITC/PI staining based flow cytometric analysis (reference value: 0.04 %); type: functional
[27] = Tmax in Sprague-Dawley rat at 10 mg/kg,po administration measured upto 24 hrs by LC-MS/MS analysis; type: ADME, organism-based; details: in vivo
[28] = tested on: MV4-11; assay: Induction of apoptosis in human MV4-11 cells assessed as necrotic cells at 1.25 uM incubated for 24 hrs by annexin V-FITC/PI staining based flow cytometric analysis (reference value: 2.35 %); type: functional

Chain of Histone acetyltransferase p300 (Homo sapiens) (Q09472 whole entry): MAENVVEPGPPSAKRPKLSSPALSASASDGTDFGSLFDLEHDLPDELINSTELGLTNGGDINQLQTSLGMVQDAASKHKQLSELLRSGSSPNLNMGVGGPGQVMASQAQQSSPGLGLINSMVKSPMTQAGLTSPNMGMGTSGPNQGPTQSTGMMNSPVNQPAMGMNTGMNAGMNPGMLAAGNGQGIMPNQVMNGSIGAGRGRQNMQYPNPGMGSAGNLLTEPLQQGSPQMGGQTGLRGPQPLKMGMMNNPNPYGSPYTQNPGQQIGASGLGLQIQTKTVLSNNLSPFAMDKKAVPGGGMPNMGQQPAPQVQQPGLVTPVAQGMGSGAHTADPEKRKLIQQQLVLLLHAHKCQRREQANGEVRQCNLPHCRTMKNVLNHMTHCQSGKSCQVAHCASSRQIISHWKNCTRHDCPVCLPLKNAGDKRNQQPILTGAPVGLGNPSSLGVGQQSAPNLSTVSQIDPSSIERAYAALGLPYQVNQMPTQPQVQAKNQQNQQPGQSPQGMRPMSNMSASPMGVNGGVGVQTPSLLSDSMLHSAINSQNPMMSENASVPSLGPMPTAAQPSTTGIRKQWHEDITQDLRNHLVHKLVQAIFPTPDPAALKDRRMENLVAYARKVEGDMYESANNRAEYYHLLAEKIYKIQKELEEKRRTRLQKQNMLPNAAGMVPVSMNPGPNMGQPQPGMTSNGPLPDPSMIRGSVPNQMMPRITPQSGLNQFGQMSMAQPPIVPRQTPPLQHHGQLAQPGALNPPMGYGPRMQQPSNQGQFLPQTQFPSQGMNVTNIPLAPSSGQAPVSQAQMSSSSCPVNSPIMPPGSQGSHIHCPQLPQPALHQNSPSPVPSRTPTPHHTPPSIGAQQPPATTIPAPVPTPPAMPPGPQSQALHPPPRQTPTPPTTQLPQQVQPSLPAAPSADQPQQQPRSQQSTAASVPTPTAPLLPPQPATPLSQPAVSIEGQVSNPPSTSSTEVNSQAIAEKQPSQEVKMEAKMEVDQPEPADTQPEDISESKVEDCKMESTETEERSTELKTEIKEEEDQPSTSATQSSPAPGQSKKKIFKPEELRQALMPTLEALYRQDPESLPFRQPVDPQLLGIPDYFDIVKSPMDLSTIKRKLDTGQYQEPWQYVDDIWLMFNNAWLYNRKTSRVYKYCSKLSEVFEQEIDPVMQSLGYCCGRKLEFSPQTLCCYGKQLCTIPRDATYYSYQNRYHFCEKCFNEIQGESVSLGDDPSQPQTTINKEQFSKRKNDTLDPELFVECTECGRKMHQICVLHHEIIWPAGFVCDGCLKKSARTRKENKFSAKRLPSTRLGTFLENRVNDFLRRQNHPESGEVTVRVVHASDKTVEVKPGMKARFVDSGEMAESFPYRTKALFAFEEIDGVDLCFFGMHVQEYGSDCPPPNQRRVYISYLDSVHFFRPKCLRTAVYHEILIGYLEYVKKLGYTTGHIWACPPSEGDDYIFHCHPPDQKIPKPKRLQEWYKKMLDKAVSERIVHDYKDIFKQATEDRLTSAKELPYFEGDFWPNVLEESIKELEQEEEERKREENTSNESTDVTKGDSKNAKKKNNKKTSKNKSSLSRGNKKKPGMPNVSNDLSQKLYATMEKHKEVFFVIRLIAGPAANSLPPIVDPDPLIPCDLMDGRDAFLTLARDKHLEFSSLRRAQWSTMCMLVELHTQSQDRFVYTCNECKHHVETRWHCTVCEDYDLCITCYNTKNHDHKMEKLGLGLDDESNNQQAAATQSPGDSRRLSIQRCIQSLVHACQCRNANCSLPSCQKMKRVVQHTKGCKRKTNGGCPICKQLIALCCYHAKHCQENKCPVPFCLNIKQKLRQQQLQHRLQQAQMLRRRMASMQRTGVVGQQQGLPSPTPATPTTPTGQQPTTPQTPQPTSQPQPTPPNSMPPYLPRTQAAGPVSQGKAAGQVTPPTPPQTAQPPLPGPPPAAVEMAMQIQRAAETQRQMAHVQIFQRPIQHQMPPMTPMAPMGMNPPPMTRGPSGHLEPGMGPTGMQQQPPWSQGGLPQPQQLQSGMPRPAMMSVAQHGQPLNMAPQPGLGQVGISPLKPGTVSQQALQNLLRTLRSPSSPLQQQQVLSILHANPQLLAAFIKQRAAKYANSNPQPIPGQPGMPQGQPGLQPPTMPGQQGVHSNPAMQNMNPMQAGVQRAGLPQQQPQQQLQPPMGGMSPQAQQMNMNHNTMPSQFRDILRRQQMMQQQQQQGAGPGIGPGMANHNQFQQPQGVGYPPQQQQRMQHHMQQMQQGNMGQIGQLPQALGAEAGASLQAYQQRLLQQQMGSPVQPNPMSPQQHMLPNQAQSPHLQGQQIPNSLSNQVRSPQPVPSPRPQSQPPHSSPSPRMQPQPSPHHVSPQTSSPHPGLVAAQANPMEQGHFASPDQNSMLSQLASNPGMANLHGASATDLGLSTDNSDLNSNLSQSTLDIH
Chain of CREB-binding protein (Homo sapiens) (Q92793 2-2442 limits assumed): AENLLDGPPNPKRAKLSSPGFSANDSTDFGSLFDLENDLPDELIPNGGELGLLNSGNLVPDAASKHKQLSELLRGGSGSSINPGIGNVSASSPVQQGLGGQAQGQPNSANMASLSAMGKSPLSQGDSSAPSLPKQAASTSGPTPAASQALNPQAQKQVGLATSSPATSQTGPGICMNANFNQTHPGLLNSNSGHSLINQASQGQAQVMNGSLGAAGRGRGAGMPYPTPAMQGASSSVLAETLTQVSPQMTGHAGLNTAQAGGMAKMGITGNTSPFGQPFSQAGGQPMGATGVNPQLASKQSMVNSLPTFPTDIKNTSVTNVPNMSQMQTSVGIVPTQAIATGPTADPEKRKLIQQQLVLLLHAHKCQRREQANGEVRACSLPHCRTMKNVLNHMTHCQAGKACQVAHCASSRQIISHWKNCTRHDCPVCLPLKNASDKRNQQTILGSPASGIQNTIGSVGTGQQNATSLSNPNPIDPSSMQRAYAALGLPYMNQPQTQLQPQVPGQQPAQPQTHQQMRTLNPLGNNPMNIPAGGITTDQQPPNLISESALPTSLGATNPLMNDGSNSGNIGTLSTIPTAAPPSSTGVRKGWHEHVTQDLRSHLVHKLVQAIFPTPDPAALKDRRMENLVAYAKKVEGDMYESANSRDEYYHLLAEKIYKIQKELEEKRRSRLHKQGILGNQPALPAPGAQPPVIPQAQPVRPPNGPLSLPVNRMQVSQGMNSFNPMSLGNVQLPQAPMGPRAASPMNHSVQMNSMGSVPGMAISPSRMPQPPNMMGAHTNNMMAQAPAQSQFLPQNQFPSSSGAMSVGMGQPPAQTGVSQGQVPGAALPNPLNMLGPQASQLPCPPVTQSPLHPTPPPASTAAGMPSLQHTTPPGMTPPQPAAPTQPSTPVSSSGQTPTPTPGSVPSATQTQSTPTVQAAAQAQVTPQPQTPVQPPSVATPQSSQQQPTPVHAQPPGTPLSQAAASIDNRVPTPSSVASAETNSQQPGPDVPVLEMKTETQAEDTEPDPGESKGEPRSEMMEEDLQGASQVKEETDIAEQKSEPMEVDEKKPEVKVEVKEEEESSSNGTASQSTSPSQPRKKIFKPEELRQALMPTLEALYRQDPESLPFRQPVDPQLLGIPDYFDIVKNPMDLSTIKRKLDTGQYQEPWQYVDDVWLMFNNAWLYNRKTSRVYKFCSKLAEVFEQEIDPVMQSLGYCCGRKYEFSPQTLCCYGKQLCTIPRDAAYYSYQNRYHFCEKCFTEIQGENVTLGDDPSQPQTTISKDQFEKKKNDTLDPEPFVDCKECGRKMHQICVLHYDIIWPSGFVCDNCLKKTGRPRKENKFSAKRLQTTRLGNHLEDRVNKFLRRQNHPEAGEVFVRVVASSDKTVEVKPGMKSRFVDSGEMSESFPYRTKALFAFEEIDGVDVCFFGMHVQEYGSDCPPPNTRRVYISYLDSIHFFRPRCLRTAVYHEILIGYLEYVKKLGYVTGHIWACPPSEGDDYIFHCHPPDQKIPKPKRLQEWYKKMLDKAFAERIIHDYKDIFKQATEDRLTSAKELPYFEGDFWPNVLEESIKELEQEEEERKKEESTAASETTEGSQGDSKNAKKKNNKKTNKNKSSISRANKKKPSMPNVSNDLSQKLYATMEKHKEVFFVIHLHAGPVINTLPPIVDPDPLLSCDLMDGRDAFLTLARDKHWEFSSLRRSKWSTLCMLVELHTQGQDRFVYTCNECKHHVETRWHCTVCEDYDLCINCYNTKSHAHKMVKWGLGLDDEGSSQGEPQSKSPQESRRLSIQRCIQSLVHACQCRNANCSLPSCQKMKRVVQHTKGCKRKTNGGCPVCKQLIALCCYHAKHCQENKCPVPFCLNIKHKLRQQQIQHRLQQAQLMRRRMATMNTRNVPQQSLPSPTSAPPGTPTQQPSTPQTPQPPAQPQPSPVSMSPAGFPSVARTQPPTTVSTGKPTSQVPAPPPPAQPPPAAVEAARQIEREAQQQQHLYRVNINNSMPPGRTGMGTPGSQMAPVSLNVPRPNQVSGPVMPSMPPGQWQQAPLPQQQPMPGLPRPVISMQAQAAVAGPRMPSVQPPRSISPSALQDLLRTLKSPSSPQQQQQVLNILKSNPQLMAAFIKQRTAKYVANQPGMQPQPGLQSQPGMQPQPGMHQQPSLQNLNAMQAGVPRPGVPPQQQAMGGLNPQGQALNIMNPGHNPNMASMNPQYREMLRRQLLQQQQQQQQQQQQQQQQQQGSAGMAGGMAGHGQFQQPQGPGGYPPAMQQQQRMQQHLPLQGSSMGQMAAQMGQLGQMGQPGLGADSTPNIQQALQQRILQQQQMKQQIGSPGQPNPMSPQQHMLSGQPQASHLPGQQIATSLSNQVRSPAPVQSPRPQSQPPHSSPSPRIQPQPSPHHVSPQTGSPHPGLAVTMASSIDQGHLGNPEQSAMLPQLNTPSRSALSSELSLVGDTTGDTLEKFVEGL

ΔTm [1]	ΔTm [6]	ΔTm [8]	Activity [10]	Activity [11]	ΔTm [12]	Activity [18]	ΔTm [20]	Activity [21]	ΔTm [24]	Structure (SMILES)	further results
0 °C	0 °C	5 °C	50%	< 30%	0 °C	> 80%	5 °C	< 30%	0 °C	COc1cc2c(cc1-c1c(C)noc1C)ncc1nc(C)n([C@H](C)c3ccccc3)c12	half-life [2]: 2.65 h; Activity [3]: 44.55%; Activity [4]: 4.8%; Activity [5]: 9.68%; Activity [7]: 48.98%; Activity [9]: 8.46%; Activity [13]: 8%; inhibition in vivo at 30 mg/kg [14]: 55.1%; Activity [15]: 6.87%; Activity [16]: Active; Activity [17]: 78.57%; Activity [19]: 3.63%; Activity [22]: 20.35%; AUC(0-inf) [23]: 16000 ng·h/mL; Activity [25]: 8.72%; Activity [26]: 12.62%; Tmax [27]: 1 h; Activity [28]: 8%
0 °C	0 °C	0 °C	< 30%	< 30%	0 °C	< 30%	0 °C	< 30%	0 °C	COc1cc2c(cc1-c1c(C)n[nH]c1C)ncc1nc(C)n([C@H](C)c3ccccc3)c12	
